Patent US11629171B2, “Beta-hairpin peptidomimetics” (POLYPHOR AG, priority 2017, dated 2023)
In brackets after ≈: the same amount, converted by molar mass. Where a SMILES comes first, the peptide text is derived from it. Bridges are numbered along the chain shown (N, C = ends). Roman numbers before positions name the chains, in order. [ ]: non-standard residue; d: D form. Thr(ol) = C[C@@H](O)[C@H](N)CO; Tle = CC(C)(C)[C@H](N)C(=O)O; Hiv = CC(C)[C@H](O)C(=O)O; dDab = NCC[C@@H](N)C(=O)O; Nle = CCCC[C@H](N)C(=O)O; Orn = NCCC[C@H](N)C(=O)O; Dab = NCC[C@H](N)C(=O)O; Nva = CCC[C@H](N)C(=O)O; Abu = CC[C@H](N)C(=O)O; Dap = NC[C@H](N)C(=O)O

How the values were obtained:
Format in all cases: cell-based
[1] = test system: Acinetobacter baumannii DSM 30008; details: DSM 30008
Procedure, shortened: (§1)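 Cation-adjusted MH-II broth, 0.002% polysorbate 80, inoculum near 10^6 CFU/mL. MIC read visually after 18-20 h, 35° C; units μg/mL.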

[2] = test system: Enterobacter cloacae 848840; details: 848840
Procedure, shortened: as §1

[3] = test system: Pseudomonas aeruginosa ATCC 27853; details: ATCC 27853
Procedure, shortened: as §1

[4] = test system: Klebsiella pneumoniae 968733; details: 968733
Procedure, shortened: as §1

[5] = test system: Klebsiella pneumoniae SSI #3010; details: SSI #3010
Procedure, shortened: as §1

[6] = test system: Escherichia coli ATCC 25922; details: ATCC 25922
Procedure, shortened: as §1

[7] = test system: Acinetobacter baumannii 872842; details: 872842
Procedure, shortened: as §1

[8] = test system: Escherichia coli 926415; details: 926415
Procedure, shortened: as §1

[9] = test system: human red blood cells (hRBC); test: Hemolysis; details: red cells of human, 1 h, 200
Procedure, shortened: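 Washed fresh human RBC (20% v/v) incubated with peptide at 200 μg/mL for 1 h at 37° C with shaking. Supernatant OD540 measured after dilution, blank corrected; percent hemolysis = OD540 peptide / OD540 of 2% Triton X-100 lysis × 100, PBS with 10% water as 0%.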

## CCC[C@@H]1NC(=O)[C@@H](CC(C)C)NC(=O)[C@H](CCN)NC(=O)[C@@H](NC(=O)[C@H](CN)NC(=O)[C@@H](NC(=O)[C@H](CCN)NC(=O)CC[C@@H]2NC(=O)[C@H](CCN)NC(=O)[C@H](Cc3ccc(O)cc3)NC(=O)[C@@H](NC(=O)[C@@H](NC(C)=O)C(C)C)CSSC[C@@H](C(=O)N[C@H](C(N)=O)[C@@H](C)O)NC(=O)[C@H](C(C)(C)C)NC(=O)[C@H](CO)NC(=O)[C@H](Cc3c[nH]c4ccccc34)NC(=O)[C@H](CO)NC(=O)[C@@H](CCN)NC2=O)[C@@H](C)O)CCNC(=O)[C@H]([C@@H](C)O)NC(=O)[C@H](CCN)NC(=O)[C@H](CCN)NC1=O [Ex. 141] (I: Ac-VCY[Dab]E[dDab]SWS[Tle]CT-NH2 / II: [Dab]T[Dap][Dab][Dab][dL][Nva][Dab][Dab]T; disulfide I:2-I:11; amide I:5-II:N; lactam II:4-II:C)
[1]
  MIC: 0.03125 µg/mL (≈ 0.013 µM)
[2]
  MIC: 0.0625 µg/mL (≈ 0.0259 µM)
[3]
  MIC: 0.125 µg/mL (≈ 0.0518 µM)
[4]
  MIC: 0.03125 µg/mL (≈ 0.013 µM)
[5]
  MIC: 0.03125 µg/mL (≈ 0.013 µM)
[6]
  MIC: 0.03125 µg/mL (≈ 0.013 µM)
[7]
  MIC: 0.0625 µg/mL (≈ 0.0259 µM)
[8]
  MIC: 0.03125 µg/mL (≈ 0.013 µM)
[9]
  Hemolysis at 200 μg/mL: 2%

## CC(=O)N[C@H](C(=O)N[C@H]1CSSC[C@@H](C(=O)N[C@@H](CO)C(N)=O)NC(=O)[C@H](C(C)C)NC(=O)[C@H](CO)NC(=O)[C@H](Cc2c[nH]c3ccccc23)NC(=O)[C@@H](CO)NC(=O)[C@@H](CCN)NC(=O)[C@H](CCC(=O)N[C@@H](CCN)C(=O)N[C@H](C(=O)N[C@@H](CN)C(=O)N[C@H]2CCNC(=O)[C@H]([C@@H](C)O)NC(=O)[C@H](CCN)NC(=O)[C@H](CCN)NC(=O)[C@H](CC(C)C)NC(=O)[C@@H](CC(C)C)NC(=O)[C@H](CCN)NC2=O)[C@@H](C)O)NC(=O)[C@H](CCN)NC(=O)[C@H](Cc2ccc(O)cc2)NC1=O)C(C)C [Ex. 305] (I: Ac-VCY[Dab]E[dDab][dS]WSVCS-NH2 / II: [Dab]T[Dap][Dab][Dab][dL]L[Dab][Dab]T; disulfide I:2-I:11; amide I:5-II:N; lactam II:4-II:C)
[1]
  Acinetobacter baumannii DSM 30008 MIC: 0.0625 µg/mL
[2]
  MIC: 0.25 µg/mL (≈ 0.104 µM)
[3]
  Pseudomonas aeruginosa ATCC 27853 MIC: 0.125 µg/mL
[4]
  MIC: 0.25 µg/mL (≈ 0.104 µM)
[5]
  Klebsiella pneumoniae SSI #3010 MIC: 0.0625 µg/mL
[6]
  Escherichia coli ATCC 25922 MIC: 0.0625 µg/mL
[7]
  MIC: 0.125 µg/mL (≈ 0.0521 µM)
[8]
  MIC: 0.25 µg/mL (≈ 0.104 µM)
[9]
  Hemolysis at 200 μg/mL: 3%

## CC(C)C[C@@H]1NC(=O)[C@@H](CC(C)C)NC(=O)[C@H](CCN)NC(=O)[C@@H](NC(=O)[C@H](CCN)NC(=O)[C@@H](NC(=O)[C@H](CCN)NC(=O)CC[C@@H]2NC(=O)[C@H](CCN)NC(=O)[C@H](Cc3ccc(O)cc3)NC(=O)[C@@H](NC(=O)[C@@H](N)C(C)C)CSSC[C@@H](C(=O)N[C@@H](CO)C(N)=O)NC(=O)[C@H](C(C)(C)C)NC(=O)[C@H](CO)NC(=O)[C@H](Cc3c[nH]c4ccccc34)NC(=O)[C@H]([C@@H](C)O)NC(=O)[C@@H](CCN)NC2=O)[C@@H](C)O)CCNC(=O)[C@H]([C@@H](C)O)NC(=O)[C@H](CCN)NC(=O)[C@H](CCN)NC1=O [Ex. 47] (I: H-VCY[Dab]E[dDab]TWS[Tle]CS-NH2 / II: [Dab]T[Dab][Dab][Dab][dL]L[Dab][Dab]T; disulfide I:2-I:11; amide I:5-II:N; lactam II:4-II:C)
[1]
  MIC: 0.125 µg/mL (≈ 0.0521 µM)
[2]
  MIC: 4 µg/mL (≈ 1.67 µM)
[3]
  MIC: 0.125 µg/mL (≈ 0.0521 µM)
[4]
  MIC: 1 µg/mL (≈ 0.417 µM)
[5]
  MIC: 0.125 µg/mL (≈ 0.0521 µM)
[6]
  MIC: 0.0625 µg/mL (≈ 0.0261 µM)
[7]
  MIC: 0.125 µg/mL (≈ 0.0521 µM)
[8]
  MIC: 0.25 µg/mL (≈ 0.104 µM)
[9]
  Hemolysis at 200 μg/mL: <1%

## CCCC[C@H](NC(C)=O)C(=O)N[C@H]1CSSC[C@@H](C(=O)N[C@H](C(N)=O)[C@@H](C)O)NC(=O)[C@H](C(C)(C)C)NC(=O)[C@H](CO)NC(=O)[C@H](Cc2c[nH]c3ccccc23)NC(=O)[C@H](CO)NC(=O)[C@@H](CCN)NC(=O)[C@H](CCC(=O)N[C@@H](CCN)C(=O)N[C@H](C(=O)N[C@@H](CN)C(=O)N[C@H]2CCNC(=O)[C@H]([C@@H](C)O)NC(=O)[C@H](CCN)NC(=O)[C@H](CCN)NC(=O)[C@H](CC)NC(=O)[C@@H](CC(C)C)NC(=O)[C@H](CCN)NC2=O)[C@@H](C)O)NC(=O)[C@H](CCN)NC(=O)[C@H](Cc2ccc(O)cc2)NC1=O [Ex. 142] (I: Ac-[Nle]CY[Dab]E[dDab]SWS[Tle]CT-NH2 / II: [Dab]T[Dap][Dab][Dab][dL][Abu][Dab][Dab]T; disulfide I:2-I:11; amide I:5-II:N; lactam II:4-II:C)
[1]
  MIC: 0.03125 µg/mL (≈ 0.013 µM)
[2]
  MIC: 0.125 µg/mL (≈ 0.0518 µM)
[3]
  MIC: 0.125 µg/mL (≈ 0.0518 µM)
[4]
  MIC: 0.0625 µg/mL (≈ 0.0259 µM)
[5]
  MIC: 0.03125 µg/mL (≈ 0.013 µM)
[6]
  MIC: 0.0625 µg/mL (≈ 0.0259 µM)
[7]
  MIC: 0.03125 µg/mL (≈ 0.013 µM)
[8]
  MIC: 0.03125 µg/mL (≈ 0.013 µM)
[9]
  Hemolysis at 200 μg/mL: <1%

## CC(C)C[C@@H]1NC(=O)[C@@H](CC(C)C)NC(=O)[C@H](CCN)NC(=O)[C@@H](NC(=O)[C@H](CCN)NC(=O)[C@@H](NC(=O)[C@H](CCN)NC(=O)CC[C@@H]2NC(=O)[C@@H](NC(=O)[C@H](Cc3ccc(O)cc3)NC(=O)[C@H](CCC(=O)O)NC(=O)[C@@H](O)C(C)C)CSSC[C@@H](C(=O)N[C@H](C(=O)N[C@@H](CCN)C(=O)N[C@H](CO)[C@@H](C)O)C(C)(C)C)NC(=O)[C@H](Cc3c[nH]c4ccccc34)NC(=O)[C@H]([C@@H](C)O)NC(=O)[C@@H](CCN)NC2=O)[C@@H](C)O)CCNC(=O)[C@H]([C@@H](C)O)NC(=O)[C@H](CCN)NC(=O)[C@H](CCN)NC1=O [Ex. 190] (I: H-[Hiv]EYCE[dDab]TWC[Tle][Dab][Thr(ol)] / II: [Dab]T[Dab][Dab][Dab][dL]L[Dab][Dab]T; disulfide I:4-I:9; amide I:5-II:N; lactam II:4-II:C)
[1]
  MIC: 0.0625 µg/mL (≈ 0.0256 µM)
[2]
  MIC: 0.5 µg/mL (≈ 0.205 µM)
[3]
  MIC: 0.25 µg/mL (≈ 0.102 µM)
[4]
  MIC: 4 µg/mL (≈ 1.64 µM)
[5]
  MIC: 0.125 µg/mL (≈ 0.0512 µM)
[6]
  MIC: 0.0625 µg/mL (≈ 0.0256 µM)
[7]
  MIC: 0.5 µg/mL (≈ 0.205 µM)
[8]
  MIC: 1 µg/mL (≈ 0.409 µM)
[9]
  Hemolysis at 200 μg/mL: <1%

## CC(=O)N[C@H](C(=O)N[C@H]1CSSC[C@@H](C(=O)N[C@@H](CO)C(N)=O)NC(=O)[C@H](C(C)C)NC(=O)[C@H](CO)NC(=O)[C@H](Cc2c[nH]c3ccccc23)NC(=O)[C@H](CCC(=O)N[C@@H](CCN)C(=O)N[C@H](C(=O)N[C@@H](CN)C(=O)N[C@H]2CCNC(=O)[C@H]([C@@H](C)O)NC(=O)[C@H](CCN)NC(=O)[C@H](CCN)NC(=O)[C@H](CC(C)C)NC(=O)[C@@H](CC(C)C)NC(=O)[C@H](CCN)NC2=O)[C@@H](C)O)NC(=O)[C@@H](CCN)NC(=O)[C@H](CCCN)NC(=O)[C@H]([C@@H](C)O)NC(=O)[C@H](Cc2ccc(O)cc2)NC1=O)C(C)C [Ex. 355] (I: Ac-VCYT[Orn][dDab]EWSVCS-NH2 / II: [Dab]T[Dap][Dab][Dab][dL]L[Dab][Dab]T; disulfide I:2-I:11; amide I:7-II:N; lactam II:4-II:C)
[1]
  Acinetobacter baumannii DSM 30008 MIC: 0.03125 µg/mL
[2]
  MIC: 0.125 µg/mL (≈ 0.0515 µM)
[3]
  Pseudomonas aeruginosa ATCC 27853 MIC: 0.125 µg/mL
[4]
  MIC: 0.25 µg/mL (≈ 0.103 µM)
[5]
  Klebsiella pneumoniae SSI #3010 MIC: 0.0625 µg/mL
[6]
  Escherichia coli ATCC 25922 MIC: 0.03125 µg/mL
[7]
  MIC: 0.0625 µg/mL (≈ 0.0258 µM)
[8]
  MIC: 0.25 µg/mL (≈ 0.103 µM)
[9]
  Hemolysis at 200 μg/mL: 6%

## CC(=O)N[C@H](C(=O)N[C@H]1CCNC(=O)CC[C@@H](C(=O)N[C@@H](CO)C(N)=O)NC(=O)[C@H](C(C)C)NC(=O)[C@H](CO)NC(=O)[C@H](Cc2c[nH]c3ccccc23)NC(=O)[C@H](CO)NC(=O)[C@@H](CCN)NC(=O)[C@H](CCC(=O)N[C@@H](CCN)C(=O)N[C@H](C(=O)N[C@@H](CN)C(=O)N[C@H]2CCNC(=O)[C@H]([C@@H](C)O)NC(=O)[C@H](CCN)NC(=O)[C@H](CCN)NC(=O)[C@H](CC(C)C)NC(=O)[C@@H](CC(C)C)NC(=O)[C@H](CCN)NC2=O)[C@@H](C)O)NC(=O)[C@H](CN)NC(=O)[C@H](Cc2ccc(O)cc2)NC1=O)C(C)C [Ex. 147] (I: Ac-V[Dab]Y[Dap]E[dDab]SWSVES-NH2 / II: [Dab]T[Dap][Dab][Dab][dL]L[Dab][Dab]T; lactam I:2-I:11, II:4-II:C; amide I:5-II:N)
[1]
  MIC: 0.0625 µg/mL (≈ 0.0261 µM)
[2]
  MIC: 0.125 µg/mL (≈ 0.0523 µM)
[3]
  MIC: 0.125 µg/mL (≈ 0.0523 µM)
[4]
  MIC: 0.5 µg/mL (≈ 0.209 µM)
[5]
  MIC: 0.0625 µg/mL (≈ 0.0261 µM)
[6]
  MIC: 0.0625 µg/mL (≈ 0.0261 µM)
[7]
  MIC: 0.25 µg/mL (≈ 0.105 µM)
[8]
  MIC: 0.25 µg/mL (≈ 0.105 µM)
[9]
  Hemolysis at 200 μg/mL: <1%
